Assay [1] addresses T1, WT/R232 STING protein (Homo sapiens, UniProt Q86WV6, H232R).
T1 construct: host or cells: HEK293T
Description: Luciferase reporter assay in HEK293T-hSTING-Luciferase cells, WT/R232. The assay is classed as cell-based. To be noted: 20 hr stimulation, read-out: R232 Activity (EC50 range). A digest of the protocol:
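Clonal HEK293T cells stably expressing human STING R232 plus an ISRE/ISG54-driven luciferase reporter, 5×10^5 per well, stimulated with compounds for 20 h. Secreted luciferase in supernatant measured by luminescence; […].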
In general terms: A reporter such as luciferase makes a cellular process visible.

For assay [2], the target named is T2, hSTING(H232) (Homo sapiens, UniProt Q86WV6).
T2 construct: host or cells: HEK293T
T2 sequence (Q86WV6 whole entry): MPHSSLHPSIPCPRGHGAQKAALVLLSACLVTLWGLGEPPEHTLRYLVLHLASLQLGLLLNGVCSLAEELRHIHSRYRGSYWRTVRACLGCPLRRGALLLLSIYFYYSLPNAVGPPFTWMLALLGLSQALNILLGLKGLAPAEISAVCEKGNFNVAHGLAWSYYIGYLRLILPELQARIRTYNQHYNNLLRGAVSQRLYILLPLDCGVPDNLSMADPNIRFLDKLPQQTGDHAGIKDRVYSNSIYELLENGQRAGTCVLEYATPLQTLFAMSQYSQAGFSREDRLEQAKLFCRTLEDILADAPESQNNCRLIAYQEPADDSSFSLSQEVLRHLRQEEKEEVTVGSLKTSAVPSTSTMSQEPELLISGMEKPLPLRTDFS
Description: Luciferase reporter assay in HEK293T-hSTING-Luciferase cells, H232 polymorph. The format is cell-based. To be noted: 20 hr stimulation, read-out: H232 activity (EC50 range). A digest of the protocol:
(§1)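 HEK293T clones stably expressed the given human STING variant plus luciferase under an ISRE/ISG54 IRF-inducible promoter. 5×10^5 cells were stimulated with compound for 20 hr, and secreted luciferase in the supernatant was measured by Quanti-Luc luminescence.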

Assay [3] concerns the target T3, hSTING(HAQ) (Homo sapiens, UniProt Q86WV6, G230A/H232R/R293Q/R71H).
T3 construct: host or cells: HEK293T
Description: Luciferase reporter assay in HEK293T-hSTING-Luciferase cells, HAQ polymorph. To be noted: 20 hr stimulation, read-out: HAQ activity (EC50 range). The assay is classed as cell-based. The method, boiled down: as §1

For assay [4], the system named is IRF pathway. Description: Reporter gene expression assay in THP1-Dual cells, IRF axis (secreted Lucia luciferase). The assay is classed as cell-based, human. To be noted: read-out: THP-IRF activity (EC50 range). The method, boiled down:
(§2)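 THP-1-derived cells carrying inducible NF-κB-SEAP and IRF-Lucia reporters, seeded at 5×10^5 and stimulated with compounds. After […], supernatant SEAP read with QUANTI-Blue and Lucia luciferase with QUANTI-Luc.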

Assay [5] concerns NF-κB pathway. As to the kind of experiment: Reporter gene expression assay in THP1-Dual cells, NFkB axis (secreted SEAP). The assay is classed as cell-based, human. To be noted: read-out: THP-NFKB activity (EC50 range). A digest of the protocol:
as §2

Among the data in patent US20200138827A1, “SMALL MOLECULE MODULATORS OF HUMAN STING” (Curadev Pharma Limited, priority 2017, published 2020) are EC50 values, retold here.

Read-outs that look alike come from different tables or passages of the source.

T3 sequence (Q86WV6 whole entry R71H/G230A/H232R/R293Q): as the sequence (Q86WV6 whole entry) above, with R71H, G230A, H232R, R293Q counted along it
T1 sequence (Q86WV6 whole entry H232R): as the sequence (Q86WV6 whole entry) above, with H232R counted along it

On to `CC1Sc2ccc(C(=O)NCc3ccc(F)cc3F)nc2N(Cc2c(F)cccc2Cl)C1=O` (centres unmarked) [Example 187, 4-(2-chloro-6-fluorobenzyl)-N-(2,4-difluorobenzyl)-2-methyl-3-oxo-3,4-dihydro-2H-pyrido[3,2-b-1,4]thiazine-6-carboxamide], for which the EC50 was 1000 to 10000 nM in assay [1]; above 10000 nM in assay [2]; above 10000 nM in assay [3]; above 10 µM in assay [4] (Homo sapiens, THP1-Dual); above 10 µM in assay [5] (Homo sapiens, THP1-Dual).
`CC1Sc2ccc(C(=O)NCc3cc4ccccc4o3)nc2N(Cc2c(F)cccc2Cl)C1=O` (centres unmarked) [Example 188, N-(benzofuran-2-ylmethyl)-4-(2-chloro-6-fluorobenzyl)-2-methyl-3-oxo-3,4-dihydro-2H-pyrido[3,2-b-1,4]thiazine-6-carboxamide]: the EC50 in assay [1] is below 1000 nM; in assay [2] it was 1000 to 10000 nM; in assay [3], 1000 to 10000 nM; in assay [4] (Homo sapiens, THP1-Dual) it was above 10 µM; in assay [5] (Homo sapiens, THP1-Dual), 1 to 10 µM.
`CC1Sc2ccc(C(=O)NCc3ccco3)nc2N(Cc2cc(F)cc(F)c2)C1=O` (centres unmarked) [Example 189, 4-(3,5-difluorobenzyl)-N-(furan-2-ylmethyl)-2-methyl-3-oxo-3,4-dihydro-2H-pyrido[3,2-b-1,4]thiazine-6-carboxamide]: the EC50 was below 1000 nM in assay [1]; 1000 to 10000 nM in assay [2]; 1000 to 10000 nM in assay [3]; above 10 µM in assay [4] (Homo sapiens, THP1-Dual); above 10 µM in assay [5] (Homo sapiens, THP1-Dual).
Take `Cc1ccc(CNC(=O)c2ccc3c(n2)N(Cc2cc(F)cc(F)c2)C(=O)C(C)S3)o1` (centres unmarked) [Example 190, 4-(3,5-difluorobenzyl)-2-methyl-N-((5-methylfuran-2-yl)methyl)-3-oxo-3,4-dihydro-2H-pyrido[3,2-b-1,4]thiazine-6-carboxamide]: the EC50 in assay [1] is below 1000 nM; in assay [2], 1000 to 10000 nM; in assay [3], 1000 to 10000 nM; in assay [4] it was 1 to 10 µM; in assay [5], 1 to 10 µM.
For `CC1Sc2ccc(C(=O)NCc3ccccc3)nc2N(Cc2cc(F)cc(F)c2)C1=O` (centres unmarked) [Example 191, N-benzyl-4-(3,5-difluorobenzyl)-2-methyl-3-oxo-3,4-dihydro-2H-pyrido[3,2-b-1,4]thiazine-6-carboxamide], the EC50 is below 1000 nM in assay [1]; 1000 to 10000 nM in assay [2]; 1000 to 10000 nM in assay [3]; 1 to 10 µM in assay [4] (Homo sapiens, THP1-Dual); 1 to 10 µM in assay [5] (Homo sapiens, THP1-Dual).
With `CC1Sc2ncc(C(=O)NCc3c(F)cc(F)cc3F)cc2N(Cc2cc(F)cc(F)c2)C1=O` (centres unmarked) [Example 192, 1-(3,5-difluorobenzyl)-3-methyl-2-oxo-N-(2,4,6-trifluorobenzyl)-2,3-dihydro-1H-pyrido[2,3-b][1,4]thiazine-7-carboxamide], the EC50 was below 1000 nM in assay [1]; below 1000 nM in assay [2]; below 1000 nM in assay [3]; 1 to 10 µM in assay [4] (Homo sapiens, THP1-Dual); 1 to 10 µM in assay [5] (Homo sapiens, THP1-Dual).
In the case of `CC1Sc2ncc(C(=O)NCc3cc4ccccc4o3)cc2N(Cc2cc(F)cc(F)c2)C1=O` (centres unmarked) [Example 193, N-(benzofuran-2-ylmethyl)-1-(3,5-difluorobenzyl)-3-methyl-2-oxo-2,3-dihydro-1H-pyrido[2,3-b][1,4]thiazine-7-carboxamide], the EC50 was below 1000 nM in assay [1]; 1000 to 10000 nM in assay [2]; 1000 to 10000 nM in assay [3]; above 10 µM in assay [4]; above 10 µM in assay [5].
On to `CC1Sc2ncc(C(=O)NCc3cc4ccccc4o3)cc2N(Cc2cc(F)cc(F)c2)C1=O` (centres unmarked) [Example 194, N-(benzofuran-2-ylmethyl)-1-(3,5-difluorobenzyl)-3-methyl-2-oxo-2,3-dihydro-1H-pyrido[2,3-b][1,4]thiazine-7-carboxamide], for which the EC50 is below 1000 nM in assay [1]; below 1000 nM in assay [2]; below 1000 nM in assay [3]; 1 to 10 µM in assay [4]; 1 to 10 µM in assay [5].
As for `Cc1ccc(CNC(=O)c2cnc3c(c2)N(Cc2c(F)cccc2Cl)C(=O)C(C)S3)o1` (centres unmarked) [Example 195, 1-(2-chloro-6-fluorobenzyl)-3-methyl-N-((5-methylfuran-2-yl)methyl)-2-oxo-2,3-dihydro-1H-pyrido[2,3-b][1,4]thiazine-7-carboxamide], the EC50 is below 1000 nM in assay [1]; 1000 to 10000 nM in assay [2]; 1000 to 10000 nM in assay [3]; above 10 µM in assay [4] (Homo sapiens, THP1-Dual); 1 to 10 µM in assay [5] (Homo sapiens, THP1-Dual).
As for `CC1Sc2ncc(C(=O)NCc3c(F)cc(F)cc3F)cc2N(Cc2c(F)cccc2Cl)C1=O` (centres unmarked) [Example 196, 1-(2-chloro-6 fluorobenzyl) 3-methyl-2-oxo-N-(2,4,6-trifluorobenzyl)-2,3-dihydro-1H-pyrido[2,3-b][1,4]thiazine-7-carboxamide], the EC50 is below 1000 nM in assay [1]; below 1000 nM in assay [2]; below 1000 nM in assay [3]; 1 to 10 µM in assay [4] (Homo sapiens, THP1-Dual); 1 to 10 µM in assay [5] (Homo sapiens, THP1-Dual).
Consider `O=C(NCc1cc2ccccc2o1)c1cnc2c(c1)N(Cc1c(F)cccc1Cl)C(=O)CS2` [Example 197, N-(benzofuran-2-ylmethyl)-1-(2-chloro-6-fluorobenzyl)-2-oxo-2,3-dihydro-1H-pyrido[2,3-b][1,4]thiazine-7-carboxamide], for which the EC50 was 1000 to 10000 nM in assay [1]; 1000 to 10000 nM in assay [2]; 1000 to 10000 nM in assay [3]; above 10 µM in assay [4] (Homo sapiens, THP1-Dual); above 10 µM in assay [5] (Homo sapiens, THP1-Dual).
Regarding `Cc1ccc(CNC(=O)c2ccc3c(n2)N(Cc2cc(F)cc(F)c2)C(=O)C(C)S3)o1` (centres unmarked) [Example 198, 4-(3,5-difluorobenzyl)-2-methyl-N-((5-methylfuran-2-yl)methyl)-3-oxo-3,4-dihydro-2H-pyrido[3,2-b][1,4]thiazine-6-carboxamide], the EC50 in assay [1] is below 1000 nM; in assay [2], below 1000 nM; in assay [3] it was below 1000 nM; in assay [4] it was 1 to 10 µM; in assay [5], 1 to 10 µM.
As to `CC1Sc2ncc(C(=O)NCc3cc4ccccc4o3)cc2N(Cc2c(F)cccc2Cl)C1=O` (centres unmarked) [Example 199, N-(benzofuran-2-ylmethyl)-1-(2-chloro-6-fluorobenzyl)-3-methyl-2-oxo-2,3-dihydro-1H-pyrido[2,3-b][1,4]thiazine-7-carboxamide], the EC50 was below 1000 nM in assay [1]; below 1000 nM in assay [2]; below 1000 nM in assay [3]; 1 to 10 µM in assay [4] (Homo sapiens, THP1-Dual); 1 to 10 µM in assay [5] (Homo sapiens, THP1-Dual).
Turning to `O=C(NCc1c(F)cc(F)cc1F)c1cnc2c(c1)N(Cc1cc(F)cc(F)c1)C(=O)CS2` [Example 200, 1-(3,5-difluorobenzyl)-2-oxo-N-(2,4,6-trifluorobenzyl)-2,3-dihydro-1H-pyrido[2,3-b] [1,4]thiazine-7-carboxamide], the EC50 in assay [1] is below 1000 nM; in assay [2] it was 1000 to 10000 nM; in assay [3] it was 1000 to 10000 nM; in assay [4] (Homo sapiens, THP1-Dual) it was above 10 µM; in assay [5] (Homo sapiens, THP1-Dual) it was above 10 µM.
With `CC1Sc2ncc(C(=O)NCc3ccccc3)cc2N(Cc2c(F)cccc2Cl)C1=O` (centres unmarked) [Example 201, N-benzyl-1-(2-chloro-6-fluorobenzyl)-3-methyl-2-oxo-2,3-dihydro-1H-pyrido[2,3-b][1,4]thiazine-7-carboxamide], the EC50 was 1000 to 10000 nM in assay [1]; 1000 to 10000 nM in assay [2]; 1000 to 10000 nM in assay [3]; above 10 µM in assay [4] (Homo sapiens, THP1-Dual); above 10 µM in assay [5] (Homo sapiens, THP1-Dual).
Turning to `Cc1ccc(CNC(=O)c2ccc3c(n2)N(Cc2c(F)cccc2Cl)C(=O)C(C)S3)o1` (centres unmarked) [Example 202, 4-(2-chloro-6-fluorobenzyl)-2-methyl-N-((5-methylfuran-2-yl)methyl)-3-oxo-3,4-dihydro-2H-pyrido[3,2-b] [1,4]thiazine-6-carboxamide], the EC50 in assay [1] was 1000 to 10000 nM; in assay [2] it was 1000 to 10000 nM; in assay [3] it was 1000 to 10000 nM; in assay [4] (Homo sapiens, THP1-Dual) it was above 10 µM; in assay [5] (Homo sapiens, THP1-Dual) it was above 10 µM.
In the case of `Cc1ccc(CNC(=O)c2ccc3c(n2)N(Cc2cc(F)cc(F)c2)C(=O)C(C)S3)o1` (centres unmarked) [Example 203, 4-(3,5-difluorobenzyl)-2-methyl-N-((5-methylfuran-2-yl)methyl)-3-oxo-3,4-dihydro-2H-pyrido[3,2-b][1,4]thiazine-6-carboxamide], the EC50 in assay [1] is 1000 to 10000 nM; in assay [2], 1000 to 10000 nM; in assay [3] it was 1000 to 10000 nM; in assay [4], above 10 µM; in assay [5], above 10 µM.
With `CC1(C)Sc2ccc(C(=O)NCc3c(F)cc(F)cc3F)cc2N(Cc2ccccc2F)C1=O` [Example 218, 4-(2-fluorobenzyl)-2,2-dimethyl-3-oxo-N-(2,4,6-trifluorobenzyl)-3,4-dihydro-2H-benzo[b][1,4] thiazine-6-carboxamide], the EC50 in assay [1] was below 1000 nM; in assay [2] it was 1000 to 10000 nM; in assay [3] it was 1000 to 10000 nM; in assay [4] (Homo sapiens, THP1-Dual), 1 to 10 µM; in assay [5] (Homo sapiens, THP1-Dual) it was 1 to 10 µM.
Consider `CC1Oc2ccc(C(=O)NCc3c(F)cc(F)cc3F)cc2N(Cc2cc(F)cc(F)c2)C1=O` (centres unmarked) [Example 232, 2-Methyl-4-(3,5-difluorobenzvyl)-3-oxo-N-(2,4,6-trifluorobenzyl)-3,4-dihydro-2H-1,4-benzoxazine-6-carboxamide], for which the EC50 in assay [1] was below 1000 nM; in assay [2], 1000 to 10000 nM; in assay [3], 1000 to 10000 nM; in assay [4] (Homo sapiens, THP1-Dual), above 10 µM; in assay [5] (Homo sapiens, THP1-Dual), above 10 µM.

As a reminder, the EC50 is the midpoint of the concentration-response curve.
